# From patent publication US8772287B2, “Pyrimidinyl and 1,3,5-triazinyl benzimidazole sulfonamides and their use in cancer therapy” (VetDC, Inc., priority 2009, dated 2014)
# Where a name gives a salt, the structure may show the parent alone. Read-outs that look alike come from different tables or passages of the source.
# Legend:
# NZOV9 = assay: Cellular growth inhibition, NZOV9 (3H-thymidine incorporation); type: cell-based, human
# Protocol: (§1) The compounds were evaluated against two early passage human cell lines NZB5 and NZOV9 (Marshall et al., Oncol. Res. 2004, 14, 297). The cells were grown in ITS medium (α-modified minimal essential medium supplemented insulin, transferrin, selenite, and 5% fetal bovine serum) and grown on 96-well tissue culture plates under an atmosphere of 5% O2, 5% CO2, and 90% N2. Individual wells contained 500-1,000 cells (depending on the growth rate) in a volume of 150 μL. Compounds were added at 10-fold concentration steps to a maximum of 20 μM and plates were incubated for five days, with ^3H-thymidine being added over the last 6 hrs. Cells were harvested and incorporated radioactivity measured. Duplicate samples were analyzed for each compound dose with multiple control samples.
# NZB5 = assay: Cellular growth inhibition, NZB5 (3H-thymidine incorporation); type: cell-based, human
# Protocol: as §1
# [1] = Homo sapiens, NZOV9, read-out: Cell IC50 NZOV9
# [2] = Homo sapiens, NZB5, read-out: Cell IC50 NZB5
# [3] = read-out: Cell IC50 NZOV9, five days incubation, 3H-thymidine over the last 6 hrs
# [4] = read-out: Cell IC50 NZB5, five days incubation, 3H-thymidine over the last 6 hrs
# [5] = Homo sapiens, NZOV9, five days incubation, 3H-thymidine over the last 6 hrs, read-out: Cell IC50 NZOV9
# [6] = Homo sapiens, NZB5, five days incubation, 3H-thymidine over the last 6 hrs, read-out: Cell IC50 NZB5
smiles,measurement,setting,value
COc1cccc2c1nc(C(F)F)n2-c1nc(N2CCOCC2)nc(N(C)C2CCCN(S(C)(=O)=O)C2)n1 (centres unmarked),melting point,,201 to 203 °C
"COc1cccc2c1nc(C(F)F)n2-c1nc(OC2CCN(S(=O)(=O)CCN3CCOCC3)CC2)nc(N2CCOCC2)n1 (as salt: hydrochloride) [Example 51, 2-(difluoromethyl)-4-methoxy-1-{4-(4-morpholinyl)-6-[(1-{[2-(4-morpholinyl)ethyl]sulfonyl}-4-piperidinyl)oxy]-1,3,5-triazin-2-yl}-1H-benzimidazole]",melting point,,255 to 259 °C
"COc1cccc2c1nc(C(F)F)n2-c1nc(N2CCOCC2)nc(N(CCCN(C)C)C2CCN(S(=O)(=O)CCl)CC2)n1 (as salt: hydrochloride) [Example 59, N^1-{1-[(chloromethyl)sulfonyl]-4-piperidinyl}-N^1-[4-[2-(difluoromethyl)-4-methoxy-1H-benzimidazol-1-yl]-6-(4-morpholinyl)-1,3,5-triazin-2-yl]-N^3,N^3-dimethyl-1,3-propanediamine]",melting point,,222 to 225 °C
"COc1cccc2c1nc(C(F)F)n2-c1nc(N2CCOCC2)nc(N2CCC(N(CCCN(C)C)S(=O)(=O)CCl)CC2)n1 (as salt: hydrochloride) [Example 60, chloro-N-{1-[4-[2-(difluoromethyl)-4-methoxy-1H-benzimidazol-1-yl]-6-(4-morpholinyl)-1,3,5-triazin-2-yl]-4-piperidinyl}-N-[3-(dimethylamino)propyl]methanesulfonamide]",melting point,,260 to 263 °C
"CN(C)CCS(=O)(=O)N1CCN(c2nc(N3CCOCC3)nc(-n3c(C(F)F)nc4ccccc43)n2)CC1 (as salt: hydrochloride) [Example 83, N-[2-({4-[4-[2-(difluoromethyl)-1H-benzimidazol-1-yl]-6-(4-morpholinyl)-1,3,5-triazin-2-yl]-1-piperazinyl}sulfonyl)ethyl]-N,N-dimethylamine]",melting point,,244 to 246 °C
"COc1cccc2c1nc(C(F)F)n2-c1nc(-c2ccc(NS(=O)(=O)CCN(C)C)cc2)nc(N2CCOCC2)n1 (as salt: methanesulfonate) [Example 74, N-{4-[4-[2-(difluoromethyl)-4-methoxy-1H-benzimidazol-1-yl]-6-(4-morpholinyl)-1,3,5-triazin-2-yl]phenyl}-2-(dimethylamino)ethanesulfonamide]",melting point,,218 to 220 °C
"COc1cccc2c1nc(C(F)F)n2-c1nc(-c2ccc(N(C)S(=O)(=O)CCN(C)C)cc2)nc(N2CCOCC2)n1 (as salt: methanesulfonate) [Example 75, N-{4-[4-[2-(difluoromethyl)-4-methoxy-1H-benzimidazol-1-yl]-6-(4-morpholinyl)-1,3,5-triazin-2-yl]phenyl}-2-(dimethylamino)-N-methylethanesulfonamide]",melting point,,218 to 220 °C
"COc1cc(N)cc2c1nc(C(F)F)n2-c1nc(N2CCOCC2)nc(N2CCN(S(=O)(=O)CCN(C)C)CC2)n1 (as salt: methanesulfonate) [Example 84, N-[2-({4-[4-[6-amino-2-(difluoromethyl)-4-methoxy-1H-benzimidazol-1-yl]-6-(4-morpholinyl)-1,3,5-triazin-2-yl]-1-piperazinyl}sulfonyl)ethyl]-N,N-dimethylamine]",melting point,,238 °C (dec.)
"COc1cccc2c1nc(C(F)F)n2-c1nc(-c2ccc(S(=O)(=O)N3CCN(C)CC3)cc2)nc(N2CCOCC2)n1 (as salt: methanesulfonate) [Example 95, 2-(difluoromethyl)-4-methoxy-1-[4-{4-[(4-methyl-1-piperazinyl)sulfonyl]phenyl}-6-(4-morpholinyl)-1,3,5-triazin-2-yl]-1H-benzimidazole]",melting point,,289 to 292 °C
"COc1cccc2c1nc(C(F)F)n2-c1nc(N2CCOCC2)c2cnn(C3CCN(S(=O)(=O)CCN(C)C)CC3)c2n1 (as salt: methanesulfonate) [Example 99, N-[2-({4-[6-[2-(difluoromethyl)-4-methoxy-1H-benzimidazol-1-yl]-4-(4-morpholinyl)-1H-pyrazolo[3,4-d]pyrimidin-1-yl]-1-piperidinyl}sulfonyl)ethyl]-N,N-dimethylamine]",melting point,,191 to 193 °C
"COc1cccc2c1nc(C(F)F)n2-c1nc(N2CCOCC2)nc(N2CCC(NS(C)(=O)=O)C2)n1 (stereo in doubt) [Example 36, N-{(3R)-1-[4-[2-(difluoromethyl)-4-methoxy-1H-benzimidazol-1-yl]-6-(4-morpholinyl)-1,3,5-triazin-2-yl]pyrrolidinyl}methanesulfonamide]",melting point,,290 to 292 °C
same,IC50,NZOV9; [1],< 0.1 µM
same,IC50,NZB5; [2],0.1 to 1 µM
"COc1cccc2c1nc(C(F)F)n2-c1nc(N2CCOCC2)nc(N2CCC(N(C)S(C)(=O)=O)C2)n1 (stereo in doubt) [Example 37, N-{(3R)-1-[4-[2-(difluoromethyl)-4-methoxy-1H-benzimidazol-1-yl]-6-(4-morpholinyl)-1,3,5-triazin-2-yl]pyrrolidinyl}-N-methylmethanesulfonamide]",melting point,,242 to 244 °C
same,IC50,NZOV9; [1],< 0.1 µM
same,IC50,NZB5; [2],0.1 to 1 µM
"COc1cccc2c1nc(C(F)F)n2-c1nc(N2CCOCC2)nc(N2CCC(NS(C)(=O)=O)C2)n1 (stereo in doubt) [Example 38, N-{(3S)-1-[4-[2-(difluoromethyl)-4-methoxy-1H-benzimidazol-1-yl]-6-(4-morpholinyl)-1,3,5-triazin-2-yl]pyrrolidinyl}methanesulfonamide]",melting point,,290 to 292 °C
same,IC50,NZOV9; [1],< 0.1 µM
same,IC50,NZB5; [2],0.1 to 1 µM
"COc1cccc2c1nc(C(F)F)n2-c1nc(N2CCOCC2)nc(N2CCC(N(C)S(C)(=O)=O)C2)n1 (stereo in doubt) [Example 39, N-{(3S)-1-[4-[2-(difluoromethyl)-4-methoxy-1H-benzimidazol-1-yl]-6-(4-morpholinyl)-1,3,5-triazin-2-yl]pyrrolidinyl}-N-methylmethanesulfonamide]",melting point,,244 to 247 °C
same,IC50,NZOV9; [1],< 0.1 µM
same,IC50,NZB5; [2],0.1 to 1 µM
"COc1cccc2c1nc(C(F)F)n2-c1nc(N2CCOCC2)nc(N2CCCC(NS(C)(=O)=O)C2)n1 (stereo in doubt) [Example 44, N-{(3R)-1-[4-[2-(difluoromethyl)-4-methoxy-1H-benzimidazol-1-yl]-6-(4-morpholinyl)-1,3,5-triazin-2-yl]piperidinyl}methanesulfonamide]",melting point,,220 to 221 °C
same,IC50,NZOV9; [1],< 0.1 µM
same,IC50,NZB5; [2],0.1 to 1 µM
"COc1cccc2c1nc(C(F)F)n2-c1nc(N2CCOCC2)nc(N2CCCC(NS(=O)(=O)CCl)C2)n1 (stereo in doubt) [Example 62, chloro-N-{(3S)-1-[4-[2-(difluoromethyl)-4-methoxy-1H-benzimidazol-1-yl]-6-(4-morpholinyl)-1,3,5-triazin-2-yl]-3-piperidinyl}methanesulfonamide]",melting point,,166 to 168 °C
"COc1cccc2c1nc(C(F)F)n2-c1nc(N[C@H]2CCN(S(C)(=O)=O)C2)nc(N2CCOCC2)n1 [Example 34, 4-[2-(difluoromethyl)-4-methoxy-1H-benzimidazol-1-yl]-N-[(3S)-1-(methylsulfonyl)pyrrolidinyl]-6-(4-morpholinyl)-1,3,5-triazin-2-amine]",IC50,NZOV9; [3],< 0.1 µM
same,IC50,NZB5; [4],0.1 to 1 µM
"COc1cccc2c1nc(C(F)F)n2-c1nc(N2CCOCC2)nc(N(C)[C@H]2CCN(S(C)(=O)=O)C2)n1 [Example 35, 4-[2-(difluoromethyl)-4-methoxy-1H-benzimidazol-1-yl]-N-methyl-N-[(3S)-1-(methylsulfonyl)pyrrolidinyl]-6-(4-morpholinyl)-1,3,5-triazin-2-amine]",IC50,NZOV9; [3],< 0.1 µM
same,IC50,NZB5; [4],< 0.1 µM
"COc1cccc2c1nc(C(F)F)n2-c1nc(OC2CCN(S(=O)(=O)CCN3CCOCC3)CC2)nc(N2CCOCC2)n1 [Example 51, 2-(difluoromethyl)-4-methoxy-1-{4-(4-morpholinyl)-6-[(1-{[2-(4-morpholinyl)ethyl]sulfonyl}-4-piperidinyl)oxy]-1,3,5-triazin-2-yl}-1H-benzimidazole]",IC50,NZOV9; [5],0.1 to 1 µM
same,IC50,NZB5; [6],> 1 µM
"COc1cccc2c1nc(C(F)F)n2-c1nc(N[C@H]2CC[C@@H](NS(C)(=O)=O)CC2)nc(N2CCOCC2)n1 [Example 79, cis-N-(4-{[4-[2-(difluoromethyl)-4-methoxy-1H-benzimidazol-1-yl]-6-(4-morpholinyl)-1,3,5-triazin-2-yl]amino}cyclohexyl)methanesulfonamide]",IC50,NZOV9; [1],< 0.1 µM
same,IC50,NZB5; [2],0.1 to 1 µM
"COc1cc(N)cc2c1nc(C(F)F)n2-c1nc(N2CCOCC2)nc(N2CCN(S(=O)(=O)CCN(C)C)CC2)n1 [Example 84, N-[2-({4-[4-[6-amino-2-(difluoromethyl)-4-methoxy-1H-benzimidazol-1-yl]-6-(4-morpholinyl)-1,3,5-triazin-2-yl]-1-piperazinyl}sulfonyl)ethyl]-N,N-dimethylamine]",IC50,NZOV9; [5],> 1 µM
same,IC50,NZB5; [6],< 0.1 µM
"COc1cccc2c1nc(C(F)F)n2-c1nc(N2CCOCC2)c2cnn(C3CCN(S(=O)(=O)CCN(C)C)CC3)c2n1 [Example 99, N-[2-({4-[6-[2-(difluoromethyl)-4-methoxy-1H-benzimidazol-1-yl]-4-(4-morpholinyl)-1H-pyrazolo[3,4-d]pyrimidin-1-yl]-1-piperidinyl}sulfonyl)ethyl]-N,N-dimethylamine]",IC50,NZOV9; [5],< 0.1 µM
same,IC50,NZB5; [6],< 0.1 µM
